Reference: article PMC10872402, “HTS discovery of PARP1-HPF1 complex inhibitors in cancer” (SLAS discovery : advancing life sciences R & D, 2023)
“And” between values parts separate entries of the source, which are not always exact repeats. Equal entries are not always repeated.

Key:
PARP1–HPF1 complex [1] = biological target: T1, PARP1–HPF1 complex (Homo sapiens, UniProt P09874+Q9NWY4); experiment: FP assay of PARP1–HPF1–DNA complex, PARP-directed library screen; assay type: biochemical
T1 construct: made in house
T1 sequence (P09874 whole entry): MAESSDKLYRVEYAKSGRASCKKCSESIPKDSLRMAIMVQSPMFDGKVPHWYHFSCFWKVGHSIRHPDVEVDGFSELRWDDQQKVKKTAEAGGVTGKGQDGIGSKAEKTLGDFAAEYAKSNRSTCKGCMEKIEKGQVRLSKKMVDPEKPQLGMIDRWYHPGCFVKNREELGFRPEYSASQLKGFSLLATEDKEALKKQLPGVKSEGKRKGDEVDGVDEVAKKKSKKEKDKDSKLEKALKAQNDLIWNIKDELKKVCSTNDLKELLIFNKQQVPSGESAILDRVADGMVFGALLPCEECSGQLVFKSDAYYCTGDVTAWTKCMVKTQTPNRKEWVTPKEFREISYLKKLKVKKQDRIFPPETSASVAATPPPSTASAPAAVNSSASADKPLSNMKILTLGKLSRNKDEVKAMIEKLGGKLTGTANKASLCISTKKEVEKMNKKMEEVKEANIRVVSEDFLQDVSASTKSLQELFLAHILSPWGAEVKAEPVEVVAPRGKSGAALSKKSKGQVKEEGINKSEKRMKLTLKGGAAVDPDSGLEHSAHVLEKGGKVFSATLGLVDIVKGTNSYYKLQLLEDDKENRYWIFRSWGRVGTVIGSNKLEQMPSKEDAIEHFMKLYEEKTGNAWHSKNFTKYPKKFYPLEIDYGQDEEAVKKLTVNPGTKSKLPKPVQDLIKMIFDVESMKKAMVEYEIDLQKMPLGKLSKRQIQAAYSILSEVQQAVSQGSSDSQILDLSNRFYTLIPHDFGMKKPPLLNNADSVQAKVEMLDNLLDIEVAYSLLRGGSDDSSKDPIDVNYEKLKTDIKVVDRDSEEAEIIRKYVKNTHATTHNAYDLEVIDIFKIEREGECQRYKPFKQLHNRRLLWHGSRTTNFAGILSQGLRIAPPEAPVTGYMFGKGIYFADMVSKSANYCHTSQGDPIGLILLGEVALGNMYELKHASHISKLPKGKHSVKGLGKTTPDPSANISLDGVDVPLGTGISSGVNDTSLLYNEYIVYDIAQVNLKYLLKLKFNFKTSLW
T1 sequence (Q9NWY4 whole entry): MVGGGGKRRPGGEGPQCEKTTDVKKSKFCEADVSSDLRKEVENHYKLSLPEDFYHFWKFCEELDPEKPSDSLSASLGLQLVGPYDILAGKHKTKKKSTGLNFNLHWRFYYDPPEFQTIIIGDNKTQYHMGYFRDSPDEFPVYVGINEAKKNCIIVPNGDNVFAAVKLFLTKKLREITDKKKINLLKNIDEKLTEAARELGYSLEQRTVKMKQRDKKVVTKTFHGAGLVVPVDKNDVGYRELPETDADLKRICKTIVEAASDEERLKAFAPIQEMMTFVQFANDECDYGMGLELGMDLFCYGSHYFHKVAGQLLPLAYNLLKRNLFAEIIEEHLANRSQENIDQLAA
Procedure: An Opentrons OT-2 robot was used for all the pipetting steps as described. First, 20 μL of binding buffer was placed into each well of the 384-well assay plate. Next, 10 μL of the pre-formed complex of PARP1 - HPF1 - DNA or PARP2 – HPF1 – DNA (prepared in binding buffer) was added to all wells. Next, 1 μL of the inhibitors from the 12-point dilution were added to the 384-well plate and was incubated with the protein - DNA for 30 min at room temperature (RT). The plate was then transferred to BMG Labtech CLARIOstar plate reader equipped with a syringe injector. The injector was used to add 10 μL of NAD^+ into all wells except for eight control wells. […] Final concentrations were 5 nM p18mer (fluorescein-labeled), 10 nM PARP1/2, 200 nM HPF1, 200 μM NAD^+, and 0.09 μM – 200 μM inhibitor. IC50 values were calculated using a nonlinear regression analysis (sigmoidal dose-response fitting with variable slope) with the following equation: Y = Bottom + (Top – Bottom)/(1 + 10(LOGIC50 – X) · HILL SLOPE) using GraphPad Prism.
We base our assay method on our previously described fluorescence polarization (FP) assay for measuring the activity of PARP1 [15]. […] (Fig. 2A). For the inhibition assay, the complex is incubated with potential inhibitors and the PARylation reaction is initiated by the addition of NAD^+. […]

PARP1–HPF1 complex [2] = biological target: T1, PARP1–HPF1 complex; experiment: FP assay of PARP1–HPF1–DNA complex, dose response of hits from the 10,000 compound pilot HTS; assay type: biochemical; conditions: dose response of HTS hits in duplicate; 10 nM PARP1, 100 nM HPF1, 15 min
Procedure: A Revvity G3 Explorer collaborative robot equipped with a freezer containing the drug library, a Revvity Janus liquid handler, and a Revvity Envision was used to carry out the screen. A ChemBridge diversity library containing 10,000 compounds was used for screening. Two identical daughter plates (2 mM) were generated, one for HTS and one for cherry-picking hits identified from HTS. The drug library was maintained in a LiCONiC STX500-DF Deep Freezer at −20 °C with 80 % N2. Binding buffer (13 μL) with 0.04 % DMSO was added to columns 23 and 24 of 32 384-well plates (Corning 3575). Next, 24.5 μL binding buffer was added to all wells on the plates. Then, 0.5 μL of 2 mM stock solutions for each of the 10,000 compounds was added to separate wells, giving a final concentration of 20 μM, excluding columns 1, 2, 23, and 24. Afterwards, 12.5 μL premix (PARP1 – HPF1 – DNA, at 10 nM PARP1, 100 nM HPF1, and 5 nM FITC-labeled p18mer DNA) was added to all wells. Next, 12.5 μL of 2 mM NAD^+ was added to each well.
Dose response curves for the hits were performed using the same Revvity robot system as for the initial screen. Binding buffer (13 μL) with 0.04 % DMSO was added to columns 23 and 24 of 32 different Corning (Cat. No. 3575) plates. Next, 25 μL binding buffer was added to all wells on the plates. Cherry-picked compound plates generated from the compound source used in the initial HTS were used to add 1 compound per column from 20 to 160 nM in duplicate with 2x serial dilution using a Revvity FlexDrop iQ instrument. A 12.5 μL premix (PARP1 – HPF1 – DNA, as above) was added to all wells. Afterwards, 12.5 μL of 2 mM NAD^+ was added to each well and plates were incubated for 15 min at RT. The FP signal was read as above, and data for screened compounds was normalized between 100 % (positive control, […]) and 0 % (negative control, rows 1 and 2). Dose response curves were plotted and fit using GraphPad Prism with a non-linear regression analysis as described above.

SUM149PT tumor organoids = experiment: Tumor organoid cytotoxicity, CellTiter-Glo 3D; assay type: cell-based; conditions: Homo sapiens, 96 h, read-out: IC50 tumor organoid viability
Procedure: SUM149PT cells were plated at 2000 cells/well into 96-well Clear Round Bottom Ultra-Low Attachment plates (Cat. No. 7007, Corning, Corning, NY) in complete growth medium. Cell assay plates were centrifuged at 1000 RPM for 15 min to promote cellular aggregation, then 25 μL of cold Growth-Factor Reduced (GFR) Matrigel (10 %) was added per well for a final concentration of 2 %. […] Briefly, tumor organoids were transferred to 96-well CELLSTAR white solid bottom plates (Cat. No. 655083, Greiner Bio-One, Monroe, NC), 40 μL (1:1) of CellTiter-Glo 3D was added to each well and plates were then placed on an orbital shaker at 450 RPM for 45 min at room temperature. CellTiter-Glo 3D’s luminescence signal was assessed using the Envision microplate reader (Revvity, Waltham, MA) with a measurement time of 100 ms. The experiment was done with triplicate organoids per condition, and IC50.values were calculated as described above.

[3] = test system: PAR in the nucleus of SUM149PT cells; experiment: PAR immunofluorescence in SUM149PT cells with MMS; assay type: cell-based; conditions: 10 and 12.5 μM, 5 h, 0.01 % MMS; for amount of PAR in the nucleus: p<0.05 for 145 and 88, p<0.001 for 4
Procedure: 18,000 SUM149PT cells were seeded into a 96 well PhenoPlate (Revvity) and allowed to adhere overnight. Cells were then treated with the selected hits at a concentration of 10 or 12.5 μM and 0.01 % final concentration of MMS for 5 h. The medium was then aspirated, and cells were fixed with 4 % paraformaldehyde for 15 min at room temperature (RT). After washing twice with PBS, cells were incubated with 0.3 % Triton X-100 for 15 min followed by another washing step. To decrease unspecific binding of the antibodies, cells were blocked in 5 % milk for 30 min at RT. Afterwards, cells were incubated with the anti-PAR primary antibody at a 1:1000 dilution for 2 h at RT. Cells were washed again and incubated with a goat anti-mouse AlexaFluor 647 secondary antibody at a 1:500 dilution for […] at RT. Finally, cells were washed, stained with Hoechst 33342 (1:1000), and imaged using a 40x water objective on the Phenix Plus High-Content Screening (HCS) System (Revvity). Each bar graph is representative of two experiments, each with three replicates of whole-well analysis per condition. The reported data represents the average of each cell within the replicates, plotted with standard deviation error bars.

cancer cells = test system: cancer cells; set-up: method as in PMID 35259019; conditions: read-out: IC50 cytotoxic activity; cited from earlier work

**Q.** For `NC(=O)c1ccccc1` [benzamide, reference compound], which IC50 (PARP1–HPF1 complex [1]) is on record?
**A.** Its IC50 is 14 µM.

**Q.** Which IC50 (PARP1–HPF1 complex [2]) does the source give for `O=C(COc1ccccc1)c1cn(CC(=O)N2CCOCC2)c2ccccc12` [compound 4] here?
**A.** The IC50 was ~1 µM and 1.07 µM.

**Q.** What about the IC50 (SUM149PT tumor organoids) of the same molecule?
**A.** The IC50 was 251 µM.

**Q.** And the “inhibition of PARylation” value [3]?
**A.** Its value is “dose-dependent inhibition of PARylation”.

**Q.** And the “amount of PAR in the nucleus” value [3]?
**A.** The value was “reduced PAR at all doses”.

**Q.** With `CCNCC#CCOc1ccc(Br)cc1` [compound 60] as the molecule, how does the IC50 (PARP1–HPF1 complex [2]) read?
**A.** The IC50 was 7.77 µM.

**Q.** Which results are given for `COc1cccc(-c2nc(CC(=O)Nc3ccc(C)c(C)c3)no2)c1` [compound 88]?
**A.** IC50 (PARP1–HPF1 complex [2]): 13.5 µM; inhibition of PARylation [3]: dose-dependent inhibition of PARylation; amount of PAR in the nucleus [3]: decreased the amount of PAR in the nucleus at the higher dose tested

**Q.** Which IC50 (PARP1–HPF1 complex [2]) does the source give for `CCNCC#CCOc1cccc(C(F)(F)F)c1` [compound 89] here?
**A.** Its IC50 is 13.8 µM.

**Q.** With `CNCC#CCOc1ccc(Cl)c(C)c1` [compound 110] as the molecule, how does the IC50 (PARP1–HPF1 complex [2]) read?
**A.** The IC50 was 20.4 µM.

**Q.** For `CCNC/C=C/COc1ccccc1OCC` [compound 116], which IC50 (PARP1–HPF1 complex [2]) is on record?
**A.** The IC50 was 22.6 µM.

**Q.** Which results are given for `N#Cc1c(NC(=O)C#Cc2ccccc2)sc2c1CCC2` [compound 145]?
**A.** IC50 (PARP1–HPF1 complex [2]): 36.8 µM; inhibition of PARylation [3]: dose-dependent inhibition of PARylation; amount of PAR in the nucleus [3]: decreased the amount of PAR in the nucleus at the higher dose tested

**Q.** For `N#Cc1sc2nc(-c3ccc(F)cc3F)ccc2c1N` [compound 151], which IC50 (PARP1–HPF1 complex [2]) is on record?
**A.** The IC50 was 40.7 µM.

**Q.** Which results are given for `O=C(c1cc(Cc2n[nH]c(=O)c3ccccc23)ccc1F)N1CCN(C(=O)C2CC2)CC1` [olaparib, reference compound]?
**A.** IC50 (cancer cells): > 50 µM; IC50 (SUM149PT tumor organoids): 85 µM
